The values below come from patent US20260200890A1, “ADAR1 INHIBITORS AND METHODS OF USING THE SAME” (AVAMMUNE THERAPEUTICS INC., priority 2022, published 2026).

Where only a bound is given, the exact number is not on record here.

This experiment has as its target T1, ADAR1 (Homo sapiens, UniProt P55265).
T1 construct: endogenous in cells; host or cells: p110 KO A549 dual cells
T1 sequence (P55265 1-1226): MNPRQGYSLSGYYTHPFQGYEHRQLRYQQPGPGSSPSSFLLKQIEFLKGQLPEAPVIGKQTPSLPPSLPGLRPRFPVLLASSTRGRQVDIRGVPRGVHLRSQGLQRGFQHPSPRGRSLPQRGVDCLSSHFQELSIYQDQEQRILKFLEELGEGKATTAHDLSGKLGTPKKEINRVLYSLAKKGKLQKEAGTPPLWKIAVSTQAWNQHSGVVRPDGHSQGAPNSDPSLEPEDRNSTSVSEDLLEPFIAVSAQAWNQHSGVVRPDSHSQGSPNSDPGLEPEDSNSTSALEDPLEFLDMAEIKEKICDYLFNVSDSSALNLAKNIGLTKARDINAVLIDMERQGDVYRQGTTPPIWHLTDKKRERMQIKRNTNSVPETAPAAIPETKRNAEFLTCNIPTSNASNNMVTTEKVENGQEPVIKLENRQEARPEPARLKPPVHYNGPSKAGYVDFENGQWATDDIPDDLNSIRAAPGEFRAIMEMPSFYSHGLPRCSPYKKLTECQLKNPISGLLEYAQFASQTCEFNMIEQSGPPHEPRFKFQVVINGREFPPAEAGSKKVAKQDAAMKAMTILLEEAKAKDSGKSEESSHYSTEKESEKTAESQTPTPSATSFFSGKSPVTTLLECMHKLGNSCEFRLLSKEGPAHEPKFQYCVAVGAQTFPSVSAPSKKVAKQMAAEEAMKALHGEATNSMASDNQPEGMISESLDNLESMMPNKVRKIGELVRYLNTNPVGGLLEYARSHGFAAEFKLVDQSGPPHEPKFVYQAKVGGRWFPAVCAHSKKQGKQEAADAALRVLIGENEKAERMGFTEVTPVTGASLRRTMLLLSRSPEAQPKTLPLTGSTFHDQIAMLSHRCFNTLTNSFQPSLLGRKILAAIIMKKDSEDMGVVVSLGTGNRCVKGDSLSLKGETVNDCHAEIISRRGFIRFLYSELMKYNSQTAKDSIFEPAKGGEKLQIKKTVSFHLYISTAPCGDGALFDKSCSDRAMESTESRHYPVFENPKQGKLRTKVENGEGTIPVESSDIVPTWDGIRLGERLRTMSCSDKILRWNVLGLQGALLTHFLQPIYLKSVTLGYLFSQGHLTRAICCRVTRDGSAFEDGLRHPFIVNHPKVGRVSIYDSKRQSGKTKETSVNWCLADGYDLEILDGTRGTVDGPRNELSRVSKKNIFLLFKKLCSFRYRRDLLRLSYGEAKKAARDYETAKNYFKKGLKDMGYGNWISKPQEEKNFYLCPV
As to the kind of experiment: ADAR1 Inhibition Assay (IFN fold-induction, Quanti-Luc luminescence, p110 KO A549 dual cells). The experiment is classed as cell-based. The note with it: IFN fold-induction vs DMSO, 24 and 48 h. The method in brief:
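p110 KO A549 dual cells (20,000/well) in supplemented DMEM, treated next day with compound at 1% final DMSO for 24 and 48 h at 37 °C, 5% CO2. Supernatant luminescence read with Quanti-Luc; IFN fold-induction = sample RLU/mean DMSO RLU, used for EC50.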

Take `CCOC(=O)c1cc(C2=CCN(C)CC2)sc1NC(=O)COC(=O)c1cccc(NS(C)(=O)=O)c1` [Compound 278]: the EC50 is above 100 µM. For the compound `CCOC(=O)c1cc(-c2ccccc2)sc1N1CCN(C(=O)c2cccc(NS(C)(=O)=O)c2)CC1` [Compound 279], the EC50 is above 100 µM. `CCOC(=O)c1cc(-c2ccccc2)sc1NC(=O)CN1CCN(c2cccc(NS(C)(=O)=O)c2)CC1` [Compound 280] registered an EC50 above 100 µM. The figure for `CS(=O)(=O)Nc1cccc(C(=O)NNC(=O)c2csc(-c3ccccc3)c2)c1` [Compound 281] is above 100 µM.

For the compound `CCOC(=O)c1cc(-c2ccccc2)sc1NC(=O)CONC(=O)c1cccc(NS(C)(=O)=O)c1` [Compound 282], the EC50 is above 100 µM.

`CCOC(=O)c1cc(-c2ccccc2)sc1NC(=O)CO/N=C/c1cccc(NS(C)(=O)=O)c1` [Compound 283] displayed an EC50 above 100 µM. On to `C=CC(=O)Nc1cccc(C(=O)OCC(=O)Nc2sc(-c3ccccc3)cc2C(=O)OCC)c1` [Compound 284], for which the EC50 was above 100 µM. The figure for `CCOC(=O)c1cc(-c2ccccc2)sc1NC(=O)C1CCC(NC(=O)c2cccc(NS(C)(=O)=O)c2)CC1` (centres unmarked) [Compound 285] is above 100 µM; for `CS(=O)(=O)Nc1cccc(-c2nc3sc(-c4ccccc4)cc3c(=O)[nH]2)c1` [Compound 286] it is above 100 µM.

For the compound `CCOC(=O)c1c(NC(=O)COC(=O)c2cccc(NS(C)(=O)=O)c2)sc(N2CCOCC2)c1C` [Compound 287], the EC50 is above 100 µM. Turning to `CCOC(=O)c1cc(-c2ccccc2)sc1NC(=O)Cn1nc(-c2cccc(NS(C)(=O)=O)c2)oc1=O` [Compound 288], the EC50 is above 100 µM. The compound `CS(=O)(=O)Nc1cccc(C(=O)OCCNC(=O)c2cc(-c3ccccc3)sc2N)c1` [Compound 289] gave an EC50 above 100 µM. In the case of `CCOC(=O)c1cc(-c2ccccc2)sc1NC(=O)OCc1nnc(-c2cccc(NS(C)(=O)=O)c2)o1` [Compound 290], the EC50 was above 100 µM.

The compound `CCOC(=O)c1cc(-c2ccccc2)sc1NC(=O)CN1C(=O)COc2ccc(NS(C)(=O)=O)cc21` [Compound 291] came in with an EC50 above 100 µM. In the case of `CCOC(=O)c1cc(C2CCNCC2)sc1NC(=O)COC(=O)c1cccc(NS(C)(=O)=O)c1` [Compound 295] it was above 100 µM. In the case of `CCOC(=O)c1cc(-c2ccccc2)sc1NC(=O)COC(=O)c1cccc(NS(=O)(=O)c2ccn(C)n2)c1` [Compound 296] it was at most 25 µM; in that of `CCOC(=O)c1cc(-c2ccccc2)sc1NC(=O)CS(=O)(=O)c1cccc(NS(C)(=O)=O)c1` [Compound 297], above 100 µM. The compound `CCOC(=O)c1cnc(NC(=O)COC(=O)c2cccc(NS(C)(=O)=O)c2)nc1-c1ccccc1` [Compound 298] displayed an EC50 above 100 µM. The figure for `CCOC(=O)c1cc(-c2ccccc2)sc1NC(=O)COC(=O)c1cccc(B(O)O)c1` [Compound 299] is above 100 µM; for `CCOC(=O)c1cc(-c2ccccc2)sc1NC(=O)COc1cc(C(F)(F)F)nc(NS(C)(=O)=O)n1` [Compound 300] it is above 100 µM; for `CCOC(=O)c1cc(-c2ccccc2)oc1NC(=O)COC(=O)c1cccc(NS(C)(=O)=O)c1` [Compound 301] it is 50 to 100 µM.

As for `CCOC(=O)c1cc(-c2ccccc2)sc1NC(=O)CCC(=O)c1cccc(NS(C)(=O)=O)c1` [Compound 303], the EC50 is 50 to 100 µM. For `CCOC(=O)c1cc(-c2ccc3c(cnn3C)c2)sc1NC(=O)COC(=O)c1cccc(NS(C)(=O)=O)c1` [Compound 305], the EC50 lay within 50 to 100 µM. In the case of `COC(=O)c1sccc1NC(=O)COC(=O)c1cccc(NS(C)(=O)=O)c1` [Compound 306] it was above 100 µM; in that of `CCOC(=O)c1cc(-c2ccccc2)sc1S(=O)(=O)N1CCN(S(C)(=O)=O)CC1` [Compound 307], above 100 µM. `CCOC(=O)c1cc(-c2ccccc2)sc1S(=O)(=O)N1CCN(C(=O)c2cccc(NS(C)(=O)=O)c2)CC1` [Compound 309]: the EC50 was in the range of 50 to 100 µM. The figure for `COC(=O)c1sc(-c2ccccc2)cc1NC(=O)COC(=O)c1cccc(NS(C)(=O)=O)c1` [Compound 311] is at most 25 µM. The figure for `CCOC(=O)c1cc(-c2ccccc2)sc1NC(=O)CC(=O)Nc1cccc(NS(C)(=O)=O)c1` [Compound 312] is 50 to 100 µM. `CCOC(=O)c1cc(-c2ccccc2)sc1-c1coc(/C=N\c2cccc(NS(C)(=O)=O)c2)c1` [Compound 313]: the EC50 was above 100 µM. In the case of `CCOC(=O)c1cc(-c2ccccc2)sc1NC(=O)COC(=O)c1cccc(Br)c1` [Compound 314] it was 50 to 100 µM. The figure for `CCOC(=O)c1cc(Sc2ccccc2)sc1NC(=O)COC(=O)c1cccc(NS(C)(=O)=O)c1` [Compound 315] is above 100 µM; for `CCOC(=O)c1cc(-c2ccc3c(c2)OCO3)sc1NC(=O)COC(=O)c1cccc(NS(C)(=O)=O)c1` [Compound 316] it is above 100 µM; for `CCOC(=O)c1cc(-c2ccc3c(c2)OCCO3)sc1NC(=O)COC(=O)c1cccc(NS(C)(=O)=O)c1` [Compound 317] it is above 100 µM.

Compound `COC(=O)c1sc(-c2ccccc2)cc1NC(=O)COC(=O)c1cccc(S(N)(=O)=O)c1` [Compound 318] yielded an EC50 of 50 to 100 µM.

In the case of `CCOC(=O)c1cc(-c2ccccc2)sc1NC(=O)Cn1ccc(=O)c(O)c1C` [Compound 319], the EC50 was above 100 µM. In the case of `COC(=O)c1scc(-c2ccccc2)c1NC(=O)COC(=O)c1cccc(NS(C)(=O)=O)c1` [Compound 320] it was above 100 µM. The figure for `CCOC(=O)c1cc(-c2ccccc2)sc1NC(=O)COC(=O)c1cccc(NS(=O)(=O)c2c(C)noc2C)c1` [Compound 322] is above 100 µM; for `CCOC(=O)c1cc(-c2ccccc2)sc1NC(=O)c1cccc(NC(=O)c2cccc(NS(C)(=O)=O)c2)c1` [Compound 323] it is above 100 µM. The figure for `CCOC(=O)c1cc(-c2ccccc2)sc1NC(=O)CCSc1cccc(NS(C)(=O)=O)c1` [Compound 324] is above 100 µM. As to `COC(=O)c1sc(-c2ccccc2)cc1NC(=O)CNC(=O)c1cccc(NS(C)(=O)=O)c1` [Compound 332], the EC50 is above 100 µM. The compound `CCOC(=O)c1cc(-c2ccccc2)sc1NC(=O)C1CCN(C(=O)Cc2cccc(NS(C)(=O)=O)c2)C1` (centres unmarked) [Compound 333] showed an EC50 of 50 to 100 µM.

Compound `CCOC(=O)c1cc(-c2ccccc2)sc1NC(=O)CN1CCN(C(=O)Cc2cccc(NS(C)(=O)=O)c2)CC1` [Compound 334] came in with an EC50 above 100 µM.

`CCOC(=O)c1cc(-c2ccc3c(cnn3C)c2)sc1NC(=O)CNC(=O)Cc1cccc(NS(C)(=O)=O)c1` [Compound 335] registered an EC50 above 100 µM. As to `CCOC(=O)c1cc(-c2ccccc2)sc1NC(=O)CN(C)C(=O)Cc1cccc(NS(C)(=O)=O)c1` [Compound 336], the EC50 is above 100 µM. In turn, `CCOC(=O)c1cc(-c2ccccc2)sc1NC(=O)C(C)NC(=O)Cc1cccc(NS(C)(=O)=O)c1` (centres unmarked) [Compound 337] displayed an EC50 above 100 µM. Take `CCOC(=O)c1cc(-c2ccccc2)sc1NC(=O)CNC(=O)Cc1cccc(S(C)(=N)=O)c1` (centres unmarked) [Compound 338]: the EC50 is above 100 µM.

Compound `CCOC(=O)c1cc(-c2ccccc2)sc1NC(=O)CNC(=O)c1ccc2ccn(S(C)(=O)=O)c2c1` [Compound 339] displayed an EC50 above 100 µM.

`CCOC(=O)c1cc(-c2ccccc2)sc1NC(=O)COC(=O)c1ccc2ccn(S(C)(=O)=O)c2c1` [Compound 340] yielded a 50% effective concentration (EC50) above 100 µM.

As for `CCOC(=O)c1cc(-c2ccccc2)sc1NC(=O)CNC(=O)c1cccc(CNS(C)(=O)=O)c1` [Compound 342], the EC50 was above 100 µM. With `CCOC(=O)c1cc(P(=O)(OCC)OCC)sc1NC(=O)COC(=O)c1cccc(NS(C)(=O)=O)c1` [Compound 345], the EC50 was above 100 µM. As for `CCOC(=O)c1cc(NC(=O)COC(=O)c2cccc(NS(C)(=O)=O)c2)nn1-c1ccccc1` [Compound 347], the EC50 was above 100 µM.

`CCOC(=O)c1cc(-c2ccccc2)sc1NC(=O)CNC(=O)Cc1cccc(P(=O)(OCC)OCC)c1` [Compound 348] yielded an EC50 above 100 µM. Compound `CCOC(=O)c1cc(-c2ccccc2)[nH]c1NC(=O)COC(=O)c1cccc(NS(C)(=O)=O)c1` [Compound 352] showed a concentration giving a half-maximal response (EC50) above 100 µM.

A word on the EC50: it is the concentration giving half of the maximal effect.
